# Test results reported in publication PMC2150373, “Phase I study of the mitomycin C analogue BMS-181174” (British Journal of Cancer, 1998).
# Like-named read-outs stand apart in the source and are kept apart here.
# Assays:
# [1] = tested on: histologically proven advanced cancer
# Protocol: (§1) In a phase I study of 82 patients with confirmed malignancy, we administered BMS-181174 at doses of 0.8-75 mg m-2 by intravenous injection every 28 days. At least three patients were evaluated at each dose level, and 174 courses were administered. […] BMS- 181174, also known as BMY-25067, is a semi-synthetic analogue of MMC created by substitution of the […] amino group by a nitrophenyl disulphide moiety (Figure 1). […] It is not known what form of BMS-181174 enters cells. However, it is possible that, after systemic administration, several forms of the drug in addition to the parent compound may be present, including mixed disulphides with endogenous thiols (such as cysteine, glutathione and methionine), methylated TEMMC and TEMMC disulphide. […] The anti-tumour effects of BMS-1 81174 have been evaluated in vivo (Bradner et al, 1990). […] The selection of the starting dose for the clinical study was based on the toxic low dose (TLD) in the dog.
# [2] = tested on: patients with histologically proven advanced cancer
# Protocol: as §1
# [3] = Pharmacokinetics of total TEMMC in plasma (HPLC, non-compartmental)
# Protocol: as §1
# mice [4] = conditions: single intravenous dose, ref Nicaise and Usakewicz, 1989; cited from earlier work
# dog = conditions: ref Nicaise and Usakewicz, 1989; cited from earlier work
# rats = conditions: of three species tested (mice, rats and dogs) in rats only; ref Bregman et al, 1989; cited from earlier work
# B 16 melanoma = conditions: drug and tumour both intraperitoneal, or i.v. against subcutaneous tumour; ref Bradner et al, 1990; cited from earlier work
# [5] = tested on: subline of L1210 partly resistant to MMC; conditions: ref Bradner et al, 1990; cited from earlier work
# [6] = tested on: highly MMC-resistant P388; conditions: ref Bradner et al, 1990; cited from earlier work
# mice [7] = conditions: respective maximum non-lethal doses in mice; ref Bradner et al, 1990; cited from earlier work
# ferrets = conditions: ref Bradner et al, 1990; cited from earlier work
# [8] = tested on: MMC-resistant tumour cell lines; conditions: in vitro, ref Rockwell et al, 1995, cited from earlier work
# [9] = preliminary in vitro studies; presumably disulphide exchange with thiols; cited from earlier work
# [10] = tested on: patients with solid tumors; conditions: similar doses given by 6-h infusion; ref Planting et al, 1994; cited from earlier work
# mice, rats and dogs = conditions: cited from earlier work
# patients = conditions: clinical use of MMC, Rabadi et al, 1982, cited from earlier work
# [11] = 65 mg m-2, 12 patients all pretreated with chemotherapy
# [12] = 75 mg m-2, 14 patients with no prior chemotherapy
# [13] = 75 mg m-2, six previously treated patients
smiles,measurement,setting,value
"CO[C@@]12[C@H](COC(N)=O)C3=C(C(=O)C(C)=C(NCCSSc4ccc([N+](=O)[O-])cc4)C3=O)N1C[C@@H]1N[C@@H]12 [BMS-181174, N-7[2-(4-nitrophenyldithio)ethyl] mitomycin C]",partial response rate,[1]; 3 out of 32 patients treated at 65-75 mg m-2,9%
same,treatment discontinued for progressive disease,[1]; 22 out of 32 patients at 65-75 mg m-2,69%
same,treatment discontinued because of progressive disease,[1]; 44 of 50 patients treated at 0.8-50 mg m-2,88%
same,partial response rate,[1]; 50 patients treated at 0.8-50 mg m-2,2%
same,"minor response (MR), no. of patients","[1]; Total, 82 patients",1
same,"partial response (PR), no. of patients","[1]; Total, 82 patients",4
same,"stable disease (SD), no. of patients","[1]; Total, 82 patients",8
same,"progressive disease (PD), no. of patients","[1]; Total, 82 patients (10 not evaluable)",59
same,overall response rate,[1]; all dose levels (discussion),6%
same,partial response rate,"[1]; overall, 4 out of 82 patients, 0.8-75 mg m-2",5%
same,"Thrombophlebitis, worst grade 0, no. of patients","[2]; 65.0 mg m-2, 12 patients",7
same,"Thrombophlebitis, worst grade 1, no. of patients","[2]; 65.0 mg m-2, 12 patients",0
same,"Thrombophlebitis, worst grade 2, no. of patients","[2]; 65.0 mg m-2, 12 patients",4
same,"Thrombophlebitis, worst grade 3, no. of patients","[2]; 65.0 mg m-2, 12 patients",1
same,"Thrombophlebitis, worst grade 4, no. of patients","[2]; 65.0 mg m-2, 12 patients",1
same,"grade 4 anaemia, incidence",[2]; [11],8%
same,"grade 4 thrombocytopenia, incidence",[2]; [11],17%
same,"grade 3-4 anaemia, incidence",[2]; [12],7%
same,"grade 3-4 neutropenia, incidence",[2]; [12],7%
same,"grade 3-4 thrombocytopenia, incidence",[2]; [12],21%
same,patients with grade 4 thrombocytopenia (total),"[2]; 75 mg m-2, 20 patients",eight
same,"Thrombophlebitis, worst grade 0, no. of patients","[2]; 75.0 mg m-2, 20 patients",12
same,"Thrombophlebitis, worst grade 1, no. of patients","[2]; 75.0 mg m-2, 20 patients",0
same,"Thrombophlebitis, worst grade 2, no. of patients","[2]; 75.0 mg m-2, 20 patients",3
same,"Thrombophlebitis, worst grade 3, no. of patients","[2]; 75.0 mg m-2, 20 patients",3
same,"Thrombophlebitis, worst grade 4, no. of patients","[2]; 75.0 mg m-2, 20 patients",2
same,"grade 3-4 anaemia, patients",[2]; [13],none
same,"grade 3-4 neutropenia, incidence",[2]; [13],33%
same,"grade 3-4 thrombocytopenia, incidence",[2]; [13],83%
same,"thrombophlebitis, incidence","[2]; 31 patients treated at 7.5-50 mg m-2, generally grade 1-2",26%
same,"thrombophlebitis of grade 3-4, incidence",[2]; 32 evaluable patients treated at 65-75 mg m-2,22%
same,treatment discontinued because of toxicity,[2]; 32 patients at 65-75 mg m-2,53%
same,"significant reduction in LVEF, incidence","[2]; 62 evaluable patients, all dose levels",15%
same,patients who died suddenly with pneumonia/pneumonitis thought drug-related,[2]; 65-75 mg m-2,Three
same,median nadir times for neutropenia,[2]; 65-75 mg m-2 (discussion),15 to 19 days
same,nadirs for thrombocytopenia (median time),[2]; 65-75 mg m-2 (discussion),16 to 24 days
same,"Haemoglobin, worst WHO grade 1, no. of patients","[2]; 75-T, 6 patients",2
same,"Haemoglobin, worst WHO grade 2, no. of patients","[2]; 75-T, 6 patients",4
same,"Haemoglobin, worst WHO grade 3, no. of patients","[2]; 75-T, 6 patients",0
same,"Haemoglobin, worst WHO grade 4, no. of patients","[2]; 75-T, 6 patients",0
same,"Neutrophils, worst WHO grade 0, no. of patients","[2]; 75-T, 6 patients",1
same,"Neutrophils, worst WHO grade 1, no. of patients","[2]; 75-T, 6 patients",1
same,"Neutrophils, worst WHO grade 2, no. of patients","[2]; 75-T, 6 patients",2
same,"Neutrophils, worst WHO grade 3, no. of patients","[2]; 75-T, 6 patients",2
same,"Neutrophils, worst WHO grade 4, no. of patients","[2]; 75-T, 6 patients",0
same,"Platelets, worst WHO grade 0, no. of patients","[2]; 75-T, 6 patients",1
same,"Platelets, worst WHO grade 1, no. of patients","[2]; 75-T, 6 patients",0
same,"Platelets, worst WHO grade 2, no. of patients","[2]; 75-T, 6 patients",0
same,"Platelets, worst WHO grade 3, no. of patients","[2]; 75-T, 6 patients",2
same,"Platelets, worst WHO grade 4, no. of patients","[2]; 75-T, 6 patients",3
same,"Haemoglobin, worst WHO grade 0, no. of patients","[2]; 75-T: 75 mg m-2, prior chemotherapy, 6 patients",0
same,"Haemoglobin, worst WHO grade 1, no. of patients","[2]; 75-U, 14 patients",3
same,"Haemoglobin, worst WHO grade 2, no. of patients","[2]; 75-U, 14 patients",7
same,"Haemoglobin, worst WHO grade 3, no. of patients","[2]; 75-U, 14 patients",1
same,"Haemoglobin, worst WHO grade 4, no. of patients","[2]; 75-U, 14 patients",0
same,"Neutrophils, worst WHO grade 0, no. of patients","[2]; 75-U, 14 patients",10
same,"Neutrophils, worst WHO grade 1, no. of patients","[2]; 75-U, 14 patients",1
same,"Neutrophils, worst WHO grade 2, no. of patients","[2]; 75-U, 14 patients",2
same,"Neutrophils, worst WHO grade 3, no. of patients","[2]; 75-U, 14 patients",0
same,"Neutrophils, worst WHO grade 4, no. of patients","[2]; 75-U, 14 patients",1
same,"Platelets, worst WHO grade 0, no. of patients","[2]; 75-U, 14 patients",7
same,"Platelets, worst WHO grade 1, no. of patients","[2]; 75-U, 14 patients",1
same,"Platelets, worst WHO grade 2, no. of patients","[2]; 75-U, 14 patients",3
same,"Platelets, worst WHO grade 3, no. of patients","[2]; 75-U, 14 patients",0
same,"Platelets, worst WHO grade 4, no. of patients","[2]; 75-U, 14 patients",3
same,"Haemoglobin, worst WHO grade 0, no. of patients","[2]; 75-U: 75 mg m-2, previously untreated, 14 patients",3
same,"possible renal toxicity (rise in serum creatinine), incidence","[2]; 82 patients, all dose levels",4%
same,possible treatment-related deaths,"[2]; 82 patients, all dose levels",four
same,"grade 1-2 nausea, number of patients","[2]; 82 patients, with prophylactic antiemetics",21
same,"moderate or severe emesis (grade 2-3), number of patients","[2]; 82 patients, thirteen of them treated at 65-75 mg m-2",fifteen
same,"time for platelet counts to recover to normal, median","[2]; after 65 mg m-2, range 21-45 days",25 days
same,"time for granulocyte counts to recover to normal, median","[2]; after 65 mg m-2, range 27-42 days",34.5 days
same,"time for granulocyte counts to recover to normal, median","[2]; after 75 mg m-2, range 19-43",22.5 days
same,"time for platelet counts to recover to normal, median","[2]; after 75 mg m-2, range 20-46",29.5 days
same,"time to nadir blood counts, median",[2]; all dose levels,15 to 22 days
same,maximum-tolerated dose,"[2]; chemotherapy-naive patients, i.v. every 28 days",75 mg m-2
same,"Significant reduction in LVEF, no. of patients","[2]; dose 0.8 mg m-2, 4 patients (3 not evaluable)",0
same,"Significant reduction in LVEF, no. of patients","[2]; dose 1.6 mg m-2, 3 patients (1 not evaluable)",1
same,"Significant reduction in LVEF, no. of patients","[2]; dose 3.2 mg m-2, 7 patients (0 not evaluable)",2
same,"Significant reduction in LVEF, no. of patients","[2]; dose 5.0 mg m-2, 5 patients (1 not evaluable)",1
same,"Significant reduction in LVEF, no. of patients","[2]; dose 7.5 mg m-2, 5 patients (0 not evaluable)",0
same,"Significant reduction in LVEF, no. of patients","[2]; dose 11.5 mg m-2, 7 patients (2 not evaluable)",0
same,"Significant reduction in LVEF, no. of patients","[2]; dose 19 mg m-2, 8 patients (3 not evaluable)",0
same,"Significant reduction in LVEF, no. of patients","[2]; dose 32 mg m-2, 5 patients (1 not evaluable)",1
same,"Significant reduction in LVEF, no. of patients","[2]; dose 50 mg m-2, 6 patients (2 not evaluable)",1
same,"Significant reduction in LVEF, no. of patients","[2]; dose 65 mg m-2, 12 patients (3 not evaluable)",0
same,"Significant reduction in LVEF, no. of patients","[2]; dose 75 mg m-2, 20 patients (4 not evaluable)",3
same,"thrombophlebitis of grades 1-3, incidence","[2]; dose levels 0.8-19 mg m-2, bolus injection",13%
same,dose-limiting toxicity,[2]; i.v. every 28 days,myelosuppression
same,maximum-tolerated dose,"[2]; previously treated patients, i.v. every 28 days",65 mg m-2
same,"significant reduction in LVEF, incidence",[2]; sixteen evaluable patients at 75 mg m-2,19%
same,haematological toxicity (grade >3),[2]; up to 50 mg m-2,no significant
same,plasma levels of TEMMC,"[3]; 0.8 and 1.6 mg m-2 dose levels, assay lower limit of quantitation 50 ng ml-1",not sufficiently sensitive to quantify plasma levels
same,dose linearity of pharmacokinetics,[3]; in vivo,dose linear
same,LD10,mice [4],24.9 mg m-2
same,toxic low dose (TLD),dog,2.5 mg m-2
same,cardiotoxicity,rats,dose-related cardiotoxicity
same,anti-tumour activity compared with MMC,B 16 melanoma,superior activity
same,anti-tumour activity,[5],slight activity
same,anti-tumour activity,[6],inactive
same,neutropenia compared with MMC,mice [7],less neutropenia than MMC
same,neutropenia and thrombocytopenia compared with MMC,ferrets,less neutropenic and much less thrombocytopenic
same,toxicity in hypoxic versus aerobic conditions,[8]; unlike MMC,not more toxic in hypoxic than aerobic conditions
same,activity against MMC-resistant tumour cell lines,[8],active
same,disappearance in plasma,[9],rapidly
same,toxicity of 6-h infusion,[10],local venous toxicity with thrombophlebitis and venospasm
same,preclinical toxicity,"mice, rats and dogs; preclinical testing of MMC analogues, ref Bregman et al, 1989",myelosuppression and proteinuria
same,myelosuppression compared with parent compound MMC,"mice, rats and dogs; preclinical, ref Doyle and Vyas, 1990",marginally less myelosuppressive than the parent compound
"CO[C@@]12[C@H](COC(N)=O)C3=C(C(=O)C(C)=C(N)C3=O)N1C[C@@H]1N[C@@H]12 [MMC, Mitomycin C]",patients with a rise in serum creatinine,"patients; ref Martino et al, 1979, Ratanatharathom et al",2%
same,dose-limiting toxicity,"patients; ref Carter and Crooke, 1979",myelosuppression
